This note sets out measurements from article PMC7181201, “Dual P-Glycoprotein and CA XII Inhibitors: A New Strategy to Reverse the P-gp Mediated Multidrug Resistance (MDR) in Cancer Cells” (Molecules, 2020).

Data set [1] deals with T1, P-gp (Homo sapiens, UniProt P08183).
T1 construct: doxorubicin resistant K562/DOX cell line overexpresses almost exclusively the transporter membrane protein P-gp; endogenous in cells; host or cells: K562/DOX (doxorubicin-selected human erythroleukemia cells)
As to the kind of experiment: Rhodamine-123 uptake test on K562/DOX cells (flow cytometry). Type of data set: cell-based. The protocol:
The results were expressed as the FR (fluorescence ratio), which is the ratio between the average fluorescence intensity of rhodamine in the presence and in the absence of modulators. Value 1 was attributed to the average fluorescence intensity of the samples exposed only to rhodamine.
(§1) An aliquot of cells (control) was incubated with the fluorochrome in the absence of inhibitors.
(§2) At the end of the uptake, cells were sedimented, washed twice in ice-cold PBS, placed in PBS on ice, and kept in the dark until flow cytometric analysis.
(§3) The histograms were generated by program GraphPad Prism 5 (GraphPad Prism software, Inc., San Diego, CA, USA); the data were obtained from the ratio between the average fluorescence intensity of the samples preincubated with the compounds under study and subsequently exposed to rhodamine, and the fluorescence of the sample exposed only to the rhodamine.
(In general: Flow cytometry measures light scatter and fluorescence of single cells or particles in a stream.)

Data set [2] has as its target T1, P-gp. As to the kind of experiment: Rhodamine-123 uptake test on LoVo/DOX cells (flow cytometry). Type of data set: cell-based. To be noted: compound 10 µM. The protocol:
The selected compounds were preliminary studied at 3, 10 and 30 µM concentrations by the MTT (3-(4,5-dimethylthiazolyl-2)-2,5-diphenyltetrazolium bromide) assay to evaluate their intrinsic cytotoxicity on LoVo/DOX cell line.
as §1, §2, §3

The target of another data set is T2, hCA I (Homo sapiens, UniProt P00915).
T2 construct: made in house
T2 sequence (P00915 whole entry): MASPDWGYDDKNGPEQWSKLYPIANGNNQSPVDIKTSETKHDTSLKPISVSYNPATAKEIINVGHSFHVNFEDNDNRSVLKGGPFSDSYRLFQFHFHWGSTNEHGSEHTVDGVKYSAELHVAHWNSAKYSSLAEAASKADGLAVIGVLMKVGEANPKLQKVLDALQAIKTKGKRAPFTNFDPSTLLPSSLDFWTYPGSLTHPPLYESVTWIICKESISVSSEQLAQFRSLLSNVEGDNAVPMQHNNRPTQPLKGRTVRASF
The data set is described as follows: Stopped-flow CO2 hydrase assay, hCA I. It is filed as biochemical. To be noted: mean from 3 assays. The protocol: (§4) An SX.18MV-R Applied Photophysics (Oxford, UK) stopped-flow instrument was used to assay the catalytic/inhibition of various CA isozymes. […] Saturated CO2 solutions in water at 25 °C were used as a substrate. Stock solutions of inhibitors were prepared at a concentration of 10 μM (in DMSO-water 1:1, v/v) and dilutions up to 0.01 nM done with the assay buffer mentioned above. […] Inhibitor and enzyme solutions were preincubated together for 10 min at room temperature prior to the assay, in order to allow for the formation of the E–I complex. […] The inhibition constants were obtained by non-linear least-squares methods using the Cheng–Prusoff equation, as reported earlier, and represent the mean from at least three different determinations. All CA isozymes used here were recombinant proteins obtained as reported earlier by our group.

The target of another data set is T3, hCA II (Homo sapiens, UniProt P00918).
T3 construct: made in house
The data set is described as follows: Stopped-flow CO2 hydrase assay, hCA II. To be noted: for Ki: stopped flow, mean from 3 assays; for hCA II vs. hCA XII preference: ratio of Ki values. Type of data set: biochemical. The protocol:
as §4

The next data set has as its target T4, hCA IX (Homo sapiens, UniProt Q16790).
T4 construct: made in house
The data set is described as follows: Stopped-flow CO2 hydrase assay, hCA IX. Type of data set: biochemical. To be noted: for Ki: stopped flow, mean from 3 assays; for more potent on hCA IX than on hCA XII: ratio of Ki values. The protocol: as §4

Another data set deals with T5, hCA XII (Homo sapiens, UniProt O43570).
T5 construct: made in house
T5 sequence (O43570 25-354): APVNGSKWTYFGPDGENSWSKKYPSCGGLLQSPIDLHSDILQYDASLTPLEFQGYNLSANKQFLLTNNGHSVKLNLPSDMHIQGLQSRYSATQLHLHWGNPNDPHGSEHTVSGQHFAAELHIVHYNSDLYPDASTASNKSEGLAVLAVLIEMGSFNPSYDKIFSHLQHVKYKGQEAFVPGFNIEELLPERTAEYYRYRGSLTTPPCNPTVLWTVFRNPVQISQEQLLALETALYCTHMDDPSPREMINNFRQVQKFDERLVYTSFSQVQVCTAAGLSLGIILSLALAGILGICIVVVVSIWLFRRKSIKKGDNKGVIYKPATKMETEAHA
As to the kind of experiment: Stopped-flow CO2 hydrase assay, hCA XII. Type of data set: biochemical. To be noted: stopped flow, mean from 3 assays. The protocol:
as §4

The test system of the next data set is K562/DOX cells. The data set is described as follows: Enhancement of doxorubicin cytotoxicity on K562/DOX cells (MTT). To be noted: 72 h. Type of data set: cell-based, human. The protocol: (§5) To evaluate the enhancement of doxorubicin toxicity in the presence of the tested compounds, the cells, in exponential growth phase, were seeded at 10^4 cells/well and solutions of either compounds or doxorubicin, or a solution of doxorubicin in combination with the compounds, were added to the wells repeated in quadruplicate. […] The MTT working solution was then added and plates were further incubated for 3 h. Following incubation cells and formazan crystals were inspected microscopically. The supernatant was then carefully removed by slow aspiration and the formazan crystals were dissolved in […] of acidified isopropanol solution. The absorbance of the solution was then read on an automated plate reader at a wavelength of 570 nm. The increase in the toxicity of doxorubicin was quantified by the ratio between the growth of the cell sample treated with IC20 of doxorubicin and that of the cell sample treated with IC20 of doxorubicin in combination with the various concentrations of the tested compounds.

A further data set relates to LoVo/DOX cells. As to the kind of experiment: Enhancement of doxorubicin cytotoxicity on LoVo/DOX cells (MTT). Type of data set: cell-based, human. To be noted: 72 h. The protocol: as §5
[3] abbreviates: doxorubicin 0.5 µM (IC20) + compound 3 µM.
[4] abbreviates: doxorubicin 0.5 µM (IC20) + compound 10 µM.
Where [5] appears, read: doxorubicin 0.3 µM (IC20) + compound 3 µM.
[6] abbreviates: doxorubicin 0.3 µM (IC20) + compound 10 µM.

“And” between values parts separate entries of the source, which are not always exact repeats. Equal entries are not always repeated.

T1 sequence (P08183 whole entry): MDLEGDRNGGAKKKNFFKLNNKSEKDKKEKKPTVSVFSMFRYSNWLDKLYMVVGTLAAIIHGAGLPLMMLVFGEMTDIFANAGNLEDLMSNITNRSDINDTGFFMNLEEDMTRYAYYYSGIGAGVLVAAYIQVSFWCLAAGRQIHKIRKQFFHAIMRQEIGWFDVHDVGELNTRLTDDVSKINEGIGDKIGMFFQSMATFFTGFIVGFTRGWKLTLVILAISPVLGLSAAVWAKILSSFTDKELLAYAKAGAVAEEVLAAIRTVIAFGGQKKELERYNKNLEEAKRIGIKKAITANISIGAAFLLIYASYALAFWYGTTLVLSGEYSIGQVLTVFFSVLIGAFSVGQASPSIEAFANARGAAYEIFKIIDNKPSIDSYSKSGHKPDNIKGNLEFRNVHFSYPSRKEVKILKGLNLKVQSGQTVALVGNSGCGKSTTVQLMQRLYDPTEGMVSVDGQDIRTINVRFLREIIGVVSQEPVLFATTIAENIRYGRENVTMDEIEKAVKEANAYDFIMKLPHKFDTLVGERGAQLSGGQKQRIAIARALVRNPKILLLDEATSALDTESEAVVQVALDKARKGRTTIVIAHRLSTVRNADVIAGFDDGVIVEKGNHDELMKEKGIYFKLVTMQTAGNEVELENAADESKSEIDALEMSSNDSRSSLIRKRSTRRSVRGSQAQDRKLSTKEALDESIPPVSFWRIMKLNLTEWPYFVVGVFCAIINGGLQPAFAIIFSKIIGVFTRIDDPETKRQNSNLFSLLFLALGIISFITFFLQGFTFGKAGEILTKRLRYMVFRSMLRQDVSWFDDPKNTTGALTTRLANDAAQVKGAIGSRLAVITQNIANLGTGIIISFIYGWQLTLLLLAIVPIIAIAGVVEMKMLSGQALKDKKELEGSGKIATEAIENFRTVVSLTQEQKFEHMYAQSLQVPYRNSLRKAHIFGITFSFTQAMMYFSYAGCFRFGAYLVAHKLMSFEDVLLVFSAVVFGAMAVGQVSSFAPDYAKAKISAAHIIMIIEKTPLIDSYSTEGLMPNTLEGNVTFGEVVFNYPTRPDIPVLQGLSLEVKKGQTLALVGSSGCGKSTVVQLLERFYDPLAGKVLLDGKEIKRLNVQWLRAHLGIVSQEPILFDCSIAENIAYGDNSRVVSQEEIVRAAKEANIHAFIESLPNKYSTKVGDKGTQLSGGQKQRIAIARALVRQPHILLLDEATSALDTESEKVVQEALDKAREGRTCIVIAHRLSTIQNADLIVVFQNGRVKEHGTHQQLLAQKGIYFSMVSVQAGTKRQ

As usually defined, the Ki is the dissociation constant of the complex between target and ligand, obtained from inhibition or displacement. As to `COc1cc(/C=C/C(=O)OCCCN(C)CCCCCOC(=O)COc2ccc3ccc(=O)oc3c2)cc(OC)c1OC` [Compound 2, (E)-3-(methyl(5-(2-((2-oxo-2H-chromen-7-yl)oxy)acetoxy)pentyl)amino)propyl 3-(3,4,5-trimethoxyphenyl)acrylate], the “FR (fluorescence ratio, Rhd 123 uptake with/without modulator)” value at P-gp [1] (compound 3 µM) stood at 1.57; at P-gp [1] (compound 30 µM) it was 5.81. In addition, at P-gp [2], the “FR (fluorescence ratio, Rhd 123 uptake)” value was 10.50. Moreover, the Ki is greater than 10000 nM on hCA I, greater than 10000 nM at hCA II, 47.4 nM at hCA IX and 8.9 nM on hCA XII. For the same compound, the “Cell Growth (%)” value in the data set on K562/DOX cells (setting [3]) is 85.6 ± 4.7%; in the data set with K562/DOX cells (setting [4]), 65.0 ± 5.2%; in the data set with LoVo/DOX cells (setting [5]), 82.7 ± 10.2%; with LoVo/DOX cells (setting [6]), 41.5% and 41.5 ± 7.3%.

Regarding `COc1cc(/C=C/C(=O)OCCCCCCN(C)CCCOC(=O)COc2ccc3ccc(=O)oc3c2)cc(OC)c1OC` [Compound 5, (E)-6-(methyl(3-(2-((2-oxo-2H-chromen-7-yl)oxy)acetoxy)propyl)amino)hexyl 3-(3,4,5-trimethoxyphenyl)acrylate], the “FR (fluorescence ratio, Rhd 123 uptake with/without modulator)” value on P-gp [1] (compound 3 µM) was found to be 3.67; on P-gp [1] (compound 30 µM) it was 5.85. Besides, the “FR (fluorescence ratio, Rhd 123 uptake)” value on P-gp [2] came to 6.30. For the same compound, the Ki at hCA I is greater than 10000 nM; at hCA II, greater than 10000 nM; at hCA IX, 26.7 nM; on hCA XII, 6.4 nM. Besides, the “Cell Growth (%)” value in the data set on K562/DOX cells (setting [3]) was 51.7% and 51.7 ± 3.0%; in the data set on LoVo/DOX cells (setting [5]) it was 58.0% and 58.0 ± 2.4%; in the data set on LoVo/DOX cells (setting [6]), 51.0% and 51.0 ± 1.9%.

Consider `COc1cc(/C=C/C(=O)OCCCCCCCN(C)CCOC(=O)COc2ccc3ccc(=O)oc3c2)cc(OC)c1OC` [Compound 7, (E)-7-(methyl(2-(2-((2-oxo-2H-chromen-7-yl)oxy)acetoxy)ethyl)amino)heptyl 3-(3,4,5-trimethoxyphenyl)acrylate], for which the “FR (fluorescence ratio, Rhd 123 uptake with/without modulator)” value is reported as 2.08 on P-gp [1] (compound 3 µM) and 4.48 on P-gp [1] (compound 30 µM). In addition, the “FR (fluorescence ratio, Rhd 123 uptake)” value at P-gp [2] is reported as 12.60. Further, the Ki is greater than 10000 nM on hCA I, greater than 10000 nM at hCA II, 29.7 nM at hCA IX and 9.1 nM at hCA XII. The “Cell Growth (%)” value is 78.1 ± 4.9% in the data set with K562/DOX cells (setting [3]); 61.0% and 61.0 ± 3.3% with LoVo/DOX cells (setting [5]); 34.9% and 34.9 ± 8.1% with LoVo/DOX cells (setting [6]).

As to `COc1cc(/C=C/C(=O)OCCCCCCCN(C)CCCCCCCOC(=O)COc2ccc3ccc(=O)oc3c2)cc(OC)c1OC` [Compound 8, (E)-7-(methyl(7-(2-((2-oxo-2H-chromen-7-yl)oxy)acetoxy)heptyl)amino)heptyl 3-(3,4,5-trimethoxyphenyl)acrylate], the entries for the “FR (fluorescence ratio, Rhd 123 uptake with/without modulator)” value on P-gp [1] (compound 3 µM) and on P-gp [1] (compound 30 µM) were 2.33 and 4.15, respectively. The “FR (fluorescence ratio, Rhd 123 uptake)” value on P-gp [2] came to 9.90. In addition, the Ki on hCA I is greater than 10000 nM; at hCA II it was greater than 10000 nM; at hCA IX it was 24.2 nM; on hCA XII it was 7.1 nM. The “Cell Growth (%)” value was 82.0 ± 5.9% in the data set with K562/DOX cells (setting [3]); 68.0% and 68.0 ± 2.9% in the data set with LoVo/DOX cells (setting [5]); 32.2% and 32.2 ± 10.7% with LoVo/DOX cells (setting [6]).

On to `COc1cc(/C=C/C(=O)OCCCCCCN(C)CCCCOC(=O)c2ccc(S(N)(=O)=O)cc2)cc(OC)c1OC` [Compound 20, (E)-4-(methyl(6-((3-(3,4,5-trimethoxyphenyl)acryloyl)oxy)hexyl)amino)butyl 4-sulfamoyl benzoate], for which the “FR (fluorescence ratio, Rhd 123 uptake with/without modulator)” value is reported as 1.01 at P-gp [1] (compound 3 µM) and 2.58 on P-gp [1] (compound 30 µM). Besides, the Ki on hCA I is 84.5 nM; on hCA II, 14 nM; at hCA IX, 33.9 nM; on hCA XII it was 41.7 nM. On hCA II, the “hCA II vs. hCA XII preference” value amounted to 3 times.

With `COc1cc(/C=C/C(=O)OCCCCCCCN(C)CCCCCCCOC(=O)c2ccc(S(N)(=O)=O)cc2)cc(OC)c1OC` [Compound 22, (E)-7-(methyl(7-((3-(3,4,5-trimethoxyphenyl)acryloyl)oxy)heptyl)amino)heptyl 4-sulfamoyl benzoate], the figures for the “FR (fluorescence ratio, Rhd 123 uptake with/without modulator)” value at P-gp [1] (compound 3 µM) and at P-gp [1] (compound 30 µM) were 2.85 and 3.20, respectively. Also, the Ki on hCA I is 73.7 nM; at hCA II it was 445 nM; at hCA IX it was 172 nM; at hCA XII, 96.7 nM.

In the case of `COc1cc(C(=O)OCCCN(C)CCCCCOC(=O)c2ccc(S(N)(=O)=O)cc2)cc(OC)c1OC` [Compound 23, 3-(methyl(5-((4-sulfamoylbenzoyl)oxy)pentyl)amino)propyl 3,4,5-trimethoxybenzoate], the “FR (fluorescence ratio, Rhd 123 uptake with/without modulator)” value at P-gp [1] (compound 3 µM) is listed as 1.00; at P-gp [1] (compound 30 µM), 1.66. Moreover, the Ki at hCA I was 284 nM; at hCA II, 128 nM; on hCA IX, 26.6 nM; at hCA XII, 63.7 nM. The “more potent on hCA IX than on hCA XII” value at hCA IX is given as “twice”.

For `COc1cc(C(=O)OCCCCCCN(C)CCCOC(=O)c2ccc(S(N)(=O)=O)cc2)cc(OC)c1OC` [Compound 24, 6-(methyl(3-((4-sulfamoylbenzoyl)oxy)propyl)amino)hexyl 3,4,5-trimethoxybenzoate], the “FR (fluorescence ratio, Rhd 123 uptake with/without modulator)” value on P-gp [1] (compound 3 µM) was 1.42; at P-gp [1] (compound 30 µM), 2.88. For the same compound, the Ki amounted to 83.5 nM at hCA I, 8.9 nM at hCA II, 25.3 nM at hCA IX and 57.6 nM at hCA XII. Also, the “hCA II vs. hCA XII preference” value at hCA II turned out to be 6.5 times. Moreover, on hCA IX, the “more potent on hCA IX than on hCA XII” value is “twice”.

Consider `CN(CCCCCCOC(=O)c1c2ccccc2cc2ccccc12)CCCOC(=O)c1ccc(S(N)(=O)=O)cc1` [Compound 27, 6-(methyl(3-((4-sulfamoylbenzoyl)oxy)propyl)amino)hexyl anthracene-9-carboxylate], for which the “FR (fluorescence ratio, Rhd 123 uptake with/without modulator)” value worked out at 1.08 at P-gp [1] (compound 3 µM) and 2.03 on P-gp [1] (compound 30 µM). For the same compound, the Ki at hCA I came out at 617 nM; on hCA II, 422 nM; on hCA IX, 28.2 nM; on hCA XII, 31.3 nM.

For `CN(CCCCCCCOC(=O)c1c2ccccc2cc2ccccc12)CCOC(=O)c1ccc(S(N)(=O)=O)cc1` [Compound 28, 7-(methyl(2-((4-sulfamoylbenzoyl)oxy)ethyl)amino)heptyl anthracene-9-carboxylate], the results for the “FR (fluorescence ratio, Rhd 123 uptake with/without modulator)” value on P-gp [1] (compound 3 µM) and on P-gp [1] (compound 30 µM) were 1.45 and 4.25, respectively. The inhibition constant Ki is 238 nM at hCA I, 475 nM on hCA II, 20.6 nM on hCA IX and 23.5 nM on hCA XII.

`COc1ccc(CCN(C)CCCC(C#N)(c2ccc(OC)c(OC)c2)C(C)C)cc1OC` (centres unmarked) [Ver, verapamil, reference compound]: the “Cell Growth (%)” value came out at 69.0 ± 0.03% in the data set with K562/DOX cells (setting [3]); 62.0 ± 0.1% in the data set on K562/DOX cells (setting [4]); 54.0 ± 0.06% in the data set on LoVo/DOX cells (setting [5]); 51.0 ± 0.09% with LoVo/DOX cells (setting [6]); 51.0% in the data set on LoVo/DOX cells (doxorubicin 0.3 µM (IC20) + compound 10 µM, listed as verapamil).
